ChEMBL document CHEMBL2321873, “1-(4-Phenylpiperazin-1-yl)-2-(1H-pyrazol-1-yl)ethanones as novel CCR1 antagonists” (Bioorg Med Chem Lett, 2013)

Tests used:
[1] = Oral bioavailability in Sprague-Dawley rat at 5 mg/kg; type: ADME, organism-based; details: in vivo
[2] = Clearance in Sprague-Dawley rat at 0.5 mg/kg, iv; type: ADME, organism-based; design: dose 0.5 mg/kg, route intravenous; details: in vivo
[3] = Half life in Sprague-Dawley rat at 0.5 mg/kg, iv; type: ADME, organism-based; design: dose 0.5 mg/kg, route intravenous; details: in vivo
[4] = Stability of the compound at pH 7.4; type: physicochemical; details: buffer

Cc1c(Cl)c(C(F)(F)F)nn1CC(=O)N1CCN(c2ccc(F)cc2)CC1
bioavailability [1]: 10% | clearance [2]: 23 mL/min/kg | half-life [3]: 114 min

COc1cc(N2CCN(C(=O)Cn3nc(C(F)(F)F)c(Cl)c3C)[C@H](CO)C2)ccc1Cl
Stability [4]: Unstable
